Results from publication PMC11477141, “Chemokine Receptor N-Terminus Charge Dictates Reliance on Post-Translational Modifications for Effective Ligand Capture and Following Boosting by Defense Peptides” (International Journal of Molecular Sciences, 2024).
Where no end group is shown, it is not given here.

Columns and labels:
Y10A-CCR5 = test: BRET CAMYEL Gαi signaling via Y10A-CCR5; format: cell-based, human; settings: CHO cells, n = 3
Description: (§1) BRET measurements of Gαi signaling and β-arrestin recruitment: Cells were seeded in 6-well plates (500,000 cells/well) and transiently transfected the following day. For BRET measurements of Gαi signaling, cells were transfected with vectors encoding the human chemokine receptors as indicated (160 ng/well) and the CAMYEL sensor (cAMP sensor, YFP-Epac-RLuc) (840 ng/well) using Lipofectamine (6 µL/well). Briefly, DNA was dissolved in 125 µL OPTI-MEM and Lipofectamine was dissolved in 125 µL OPTI-MEM. The DNA and Lipofectamine solutions were combined into a transfection mixture. The transfection mixture was added dropwise to cells incubated in OPTI-MEM (1 mL/well). Transfections were terminated after 5 h by adding 1 mL of fresh culture medium on top of the OPTI-MEM. The following day the cells were loosened from the plates in PBS with 5 mM glucose and subsequently aliquoted in white 96-well iso plates (~25,000 cells/well). […] The BRET signal is determined as the ratio eYFP (530 nm)/Rluc (480 nm).
(§2) BRET principle with CAMYEL: For quantification of signaling initiated immediately downstream of receptor activation, we used the cAMP binding CAMYEL sensor to perform bioluminescence resonance energy transfer (BRET) based assays. […] The BRET ratio is determined as the ratio between YFP/Rluc, and an increase in BRET ratio indicates a decrease in cAMP and thus increased chemokine receptor activation. […]

Y10Y14Y15AAA-CCR5 = test: BRET CAMYEL Gαi signaling via Y10Y14Y15AAA-CCR5; format: cell-based, human; settings: CHO cells, n = 3
Description: as §1, §2

S6S7AA-CCR5 = test: BRET CAMYEL Gαi signaling via S6S7AA-CCR5; format: cell-based, human; settings: CHO cells, n = 3
Description: as §1, §2

[1] = target: fully sulfated version of the CCR1 N-terminal peptide; set-up: method as in PMID 30567735; settings: read-out: affinity for the fully sulfated version of the CCR1 N-terminal peptide; cited from earlier work
[2] = test system: peptides corresponding to the CCR5 receptor N-terminus; settings: cited from earlier work
Description: CCR5, in contrast to CCR1, has an N-terminus that is sparse in acidic amino acids but has multiple tyrosine sulfation sites as well as O-glycosylation sites, that might increase the negative charge of the receptor N-terminus through post-translational modifications. CCL5 affinity towards peptides corresponding to the CCR5 receptor N-terminus increases by ≥100-fold if the peptides are sulfated on Y10 and Y14 [30], and the same tyrosine sulfation is needed for HIV1env protein binding and viral entry.

naked CCR1 N-terminus = naked CCR1 N-terminus (Homo sapiens, UniProt P32246); test: Fluorescence polarization binding to FAM-labeled CCR1 N-terminal peptide; settings: FAM probe 250 nM, FP buffer PBS:MilliQ 1:3, peptide 12.21 nM to 100 µM, n = 3, read-out: dissociation constant (Kd) for CCR1 N-terminal peptide
Description: (§3) Fluorescence polarization (FP) assay: The carboxyfluorescein (FAM)-labeled peptides representing the CCR1 and CCR5 N-termini functioned as the probes for quantifying the interaction between the receptor N-terminus and C21TP^81-111. The probe was diluted in FP buffer (1:3, PBS:MilliQ) and 10 µL was added to a final concentration of 250 nM per well in a black 384-well plate (Corning). The C21TP^81-111 peptide (2 mM) was diluted using a two-fold dilution series; 30 µL of the peptide was added to each well to final concentrations ranging from 12.21 nM to 100 µM. Blanks containing 10 µL probe and 30 µL FP buffer were included. The plate was spun down at 1000 rpm for 1 min and the FP signal was measured on a Flex station using SoftMax Pro software 7.0. Each experiment was conducted in triplicate. The binding curves were generated by plotting the FP signal, expressed as millipolarization units (mP), against C21TP^81-111 concentration. The dissociation constant (Kd) value was calculated using GraphPad Prism 9.
(§4) Probes: • CCR1: (5,6-FAM)-[…], • CCR5: (5,6-FAM)-ADYQVSSPIYDINYYTSEP.

naked CCR5 N-terminus = test: Fluorescence polarization binding to FAM-labeled CCR5 N-terminal peptide; set-up: species or system human
Description: as §3, §4

Chain of naked CCR1 N-terminus (P32246 with tags, fused parts or gaps limits assumed): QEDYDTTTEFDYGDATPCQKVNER

Substance	Gαi signaling via Y10A-CCR5 compared to WT-CCR5 (Y10A-CCR5)	Gαi signaling via Y10Y14Y15AAA-CCR5 compared to WT-CCR5 (Y10Y14Y15AAA-CCR5)	Gαi signaling via S6S7AA-CCR5 compared to WT-CCR5 (S6S7AA-CCR5)	Kd [1]	increase of affinity towards CCR5 N-terminus peptides if sulfated on Y10 and Y14 [2]	Kd (naked CCR1 N-terminus)	binding to the naked CCR5 N-terminus (naked CCR5 N-terminus)	boosting of CCL5 signaling via Y10A receptor variant (Y10A-CCR5; 10 µM peptide)	boosting of CCL5 signaling via Y10Y14Y15AAA receptor variant (Y10Y14Y15AAA-CCR5; 10 µM peptide)	boosting of CCL5 signaling via S6S7AA receptor variant (S6S7AA-CCR5; 10 µM peptide)
CCL5: human chemokine from Peprotech, overall basic	significantly reduced	completely abolished	significantly reduced	100 nM	≥ 100 fold					
RKDRGASKTGKKGKGSKGCKRTERSQTPKGP [C21TP^81-111]						~2890 nM	no such binding is observed	maintained	no longer possible	maintained
